We go through 31 compounds from US9434711B2 (Janssen Pharmaceutica, NV, priority 2007, dated 2016).

This assay deals with canine TRPM8 (Canis lupus familiaris, UniProt Q1A7N1). Put plainly: In Vitro Canine TRPM8 Functional Assay (Ca2+ fluorescence, icilin activation). The class given is cell-based. The note with it: for IC50: HEK293 cells stably expressing canine TRPM8, icilin activation, eight-point dose-response, read-out: IC50; for inhibition at 0.2 µM / % Inh @ 0.2 (μM): compound at 0.2 μM, canine TRPM8, icilin activation; for inhibition at 0.2 µM: read-out: % Inh @ 0.2. An outline of the steps:
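Canine TRPM8 stably expressed in HEK293; compound added 5 min before icilin challenge (~80% max response), with fluorescent Ca2+ signal tracked throughout.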

Sequence of canine TRPM8 (Q1A7N1 1-1104): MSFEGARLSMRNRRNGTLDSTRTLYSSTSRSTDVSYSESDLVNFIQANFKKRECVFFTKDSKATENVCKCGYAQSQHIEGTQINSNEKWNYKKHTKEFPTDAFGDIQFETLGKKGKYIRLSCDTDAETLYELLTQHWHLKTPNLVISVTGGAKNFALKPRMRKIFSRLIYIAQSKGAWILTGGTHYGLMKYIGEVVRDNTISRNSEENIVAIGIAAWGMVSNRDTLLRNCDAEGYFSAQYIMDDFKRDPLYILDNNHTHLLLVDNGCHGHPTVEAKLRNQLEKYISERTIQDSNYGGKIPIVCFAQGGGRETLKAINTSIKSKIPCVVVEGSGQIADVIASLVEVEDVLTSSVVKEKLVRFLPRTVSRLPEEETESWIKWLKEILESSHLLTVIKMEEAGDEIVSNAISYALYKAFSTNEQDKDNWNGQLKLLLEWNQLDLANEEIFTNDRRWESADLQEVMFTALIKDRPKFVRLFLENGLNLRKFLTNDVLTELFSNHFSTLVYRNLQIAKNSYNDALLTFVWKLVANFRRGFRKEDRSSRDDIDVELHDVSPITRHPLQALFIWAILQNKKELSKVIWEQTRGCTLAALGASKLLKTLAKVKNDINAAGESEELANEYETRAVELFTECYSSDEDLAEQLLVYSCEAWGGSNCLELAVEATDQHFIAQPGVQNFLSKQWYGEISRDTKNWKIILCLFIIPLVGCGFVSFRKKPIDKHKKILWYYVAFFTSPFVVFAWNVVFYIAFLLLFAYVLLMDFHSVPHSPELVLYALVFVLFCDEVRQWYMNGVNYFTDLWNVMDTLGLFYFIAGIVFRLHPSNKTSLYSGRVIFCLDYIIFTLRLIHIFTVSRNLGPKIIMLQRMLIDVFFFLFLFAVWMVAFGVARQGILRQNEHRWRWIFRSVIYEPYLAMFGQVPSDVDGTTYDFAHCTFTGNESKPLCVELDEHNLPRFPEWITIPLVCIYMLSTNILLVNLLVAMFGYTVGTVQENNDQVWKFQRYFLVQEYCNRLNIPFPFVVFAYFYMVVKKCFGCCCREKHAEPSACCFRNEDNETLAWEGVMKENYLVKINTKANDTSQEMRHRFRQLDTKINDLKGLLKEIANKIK

On to `CCCCCCN(c1sc2ccccc2c1Br)S(=O)(=O)c1ccc(C(=O)O)cc1` [Compound 393, N-(3-Bromo-benzo[b]thiophen-2-yl)-N-(hexyl)-4-carboxy-benzenesulfonamide], for which the IC50 worked out at 5 nM and the inhibition at 0.2 µM was determined as 95%.

Consider `O=C(O)c1ccc(S(=O)(=O)N(CCCC(F)(F)F)c2sc3ccccc3c2Br)cc1` [Compound 394, N-(3-Bromo-benzo[b]thiophen-2-yl)-N-(4,4,4-trifluoro-butyl)-4-carboxy-benzenesulfonamide], for which the IC50 amounted to 9 nM and the inhibition at 0.2 µM was found to be 101%.

On to `CC(C)(C)OCCCN(c1sc2ccccc2c1Br)S(=O)(=O)c1ccc(C(=O)O)cc1` [Compound 397, N-(3-Bromo-benzo[b]thiophen-2-yl)-N-(3-tert-butoxypropyl)-4-carboxy-benzenesulfonamide], for which the IC50 was found to be 8 nM and the inhibition at 0.2 µM is 95%.

Turning to `Cc1c(N(CC2CC2)S(=O)(=O)c2ccc(C(=O)O)cc2)sc2ccccc12` [Compound 399, N-(3-Methyl-benzo[b]thiophen-2-yl)-N-(cyclopropylmethyl)-4-carboxy-benzenesulfonamide], the IC50 stood at 36 nM and the inhibition at 0.2 µM amounted to 93%.

Consider `Cc1c(N(CCOC(C)(C)C)S(=O)(=O)c2ccc(C(=O)O)cc2)sc2ccccc12` [Compound 401, N-(3-Methyl-benzo[b]thiophen-2-yl)-N-(2-tert-butoxy-ethyl)-4-carboxy-benzenesulfonamide], for which the IC50 came out at 5 nM and the inhibition at 0.2 µM was 91%.

On to `CCN(c1sc2ccccc2c1C)S(=O)(=O)c1ccc(C(=O)OC)cc1` [Compound 402, N-(3-Methyl-benzo[b]thiophen-2-yl)-N-(ethyl)-4-carbomethoxy-benzenesulfonamide], for which the inhibition at 0.2 µM is 38%.

Take `CCN(c1sc2ccccc2c1C)S(=O)(=O)c1ccc(C(=O)O)cc1` [Compound 403, N-(3-Methyl-benzo[b]thiophen-2-yl)-N-(ethyl)-4-carboxy-benzenesulfonamide]: the inhibition at 0.2 µM is 52%.

`CCCN(c1sc2ccccc2c1C)S(=O)(=O)c1ccc(C(=O)O)cc1` [Compound 404, N-(3-Methyl-benzo[b]thiophen-2-yl)-N-(propyl)-4-carboxy-benzenesulfonamide]: the inhibition at 0.2 µM came out at 96%.

On to `COC(=O)c1cccc(CN(c2sc3ccccc3c2Br)S(=O)(=O)c2cccnc2)c1` [Compound 405, N-(3-Bromo-benzo[b]thiophen-2-yl)-N-(3-carbomethoxy-benzyl)-pyridin-3-ylsulfonamide], for which the IC50 worked out at 36 nM and the inhibition at 0.2 µM is 95%.

Regarding `COC(=O)c1ccc(CN(c2sc3ccccc3c2Br)S(=O)(=O)c2cccnc2)cc1` [Compound 406, N-(3-Bromo-benzo[b]thiophen-2-yl)-N-(4-carbomethoxy-benzyl)-pyridin-3-ylsulfonamide], the inhibition at 0.2 µM worked out at 66%.

With `O=S(=O)(c1cccnc1)N(CCCC(F)(F)F)c1sc2ccccc2c1Br` [Compound 407, N-(3-Bromo-benzo[b]thiophen-2-yl)-N-(4,4,4-trifluoro-butyl)-pyridin-3-yl-sulfonamide], the IC50 was found to be 43 nM and the inhibition at 0.2 µM was 96%.

For the compound `O=S(=O)(c1cccnc1)N(CCCC(F)(F)F)c1sc2ccccc2c1Cl` [Compound 408, N-(3-Chloro-benzo[b]thiophen-2-yl)-N-(4,4,4-trifluoro-butyl)-3-pyridin-3-yl-sulfonamide], the IC50 is 122 nM and the “% Inh @ 0.2 (μM)” value is recorded as 78%.

As for `Cc1c(N(CCCC(F)(F)F)S(=O)(=O)c2ccc(C(=O)O)cc2)sc2ccccc12` [Compound 410, N-(3-Methyl-benzo[b]thiophen-2-yl)-N-(4,4,4-trifluoro-butyl)-4-carboxy-benzenesulfonamide], the IC50 was 17 nM and the inhibition at 0.2 µM amounted to 96%.

As to `N#Cc1ccc(S(=O)(=O)N(Cc2ccc(F)c(C(F)(F)F)c2)c2cc3ccccc3s2)cc1` [Compound 411, N-(Benzo[b]thiophen-2-yl)-N-(4-fluoro-3-trifluoromethyl-benzyl)-4-cyano-benzenesulfonamide], the inhibition at 0.2 µM amounted to 43%.

As for `COC(=O)c1ccc(S(=O)(=O)N(CCCC(F)(F)F)c2sc3cc(F)ccc3c2C)cc1` [Compound 412, N-(6-Fluoro-3-methyl-benzo[b]thiophen-2-yl)-N-(4,4,4-trifluoro-butyl)-4-carbomethoxybenzenesulfonamide], the inhibition at 0.2 µM was determined as 13%.

For `NC(=O)c1ccc(S(=O)(=O)N(Cc2ccc(F)c(C(F)(F)F)c2)c2cc3ccccc3s2)cc1` [Compound 413, N-(Benzo[b]thiophen-2-yl)-N-(4-fluoro-3-trifluoromethyl-benzyl)-4-carboxamide-benzenesulfonamide], the IC50 was 46 nM and the “% Inh @ 0.2 (μM)” value was 93%.

Turning to `NC(=O)c1ccc(S(=O)(=O)N(CCCC(F)(F)F)c2cc3ccccc3s2)cc1` [Compound 414, N-(Benzo[b]thiophen-2-yl)-N-(4,4,4-trifluoro-butyl)-4-carboxamide-benzene-sulfonamide], the “% Inh @ 0.2 (μM)” value amounted to 33%.

In the case of `COC(=O)c1ccc(S(=O)(=O)N(Cc2ccc(F)c(C(F)(F)F)c2)c2sc3ccccc3c2C(C)(C)O)cc1` [Compound 415, N-(4-Fluoro-3-trifluoromethylbenzyl)-N-(3-(1-hydroxy-1-methyl-ethyl)-benzo[b]thiophen-2-yl)-4-carbomethoxy-benzenesulfonamide], the IC50 was 5 nM and the inhibition at 0.2 µM turned out to be 92%.

Take `COC(=O)c1ccc(S(=O)(=O)N(CCCOC(C)(C)C)c2sc3ccccc3c2C)cc1` [Compound 416, N-(3-Methyl-benzo[b]thiophen-2-yl)-N-(3-tert-butoxy-propyl)-4-carbomethoxy-benzenesulfonamide]: the IC50 was found to be 12 nM and the inhibition at 0.2 µM was 95%.

With `CNCc1c(N(Cc2ccc(F)c(C(F)(F)F)c2)S(=O)(=O)c2ccccc2)sc2ccccc12` [Compound 417, N-(4-Fluoro-3-trifluoromethyl-benzyl)-N-(3-methylaminomethyl-benzo[b]thiophen-2-yl)-benzenesulfonamide], the IC50 worked out at 62 nM and the inhibition at 0.2 µM was determined as 93%.

Consider `CN(C)Cc1c(N(Cc2ccc(F)c(C(F)(F)F)c2)S(=O)(=O)c2ccccc2)sc2ccccc12` [Compound 418, N-(3-Dimethylaminomethyl-benzo[b]thiophen-2-yl)-N-(4-fluoro-3-trifluoromethyl-benzyl)-benzenesulfonamide], for which the IC50 is 69 nM and the inhibition at 0.2 µM was determined as 90%.

For `CCCCN(c1sc2ccccc2c1C=O)S(=O)(=O)c1ccc(C(=O)OC)cc1` [Compound 419, N-(Butyl)-N-(3-formyl-benzo[b]thiophene-2-yl)-4-carbomethoxy-benzenesulfonamide], the IC50 was 345 nM and the inhibition at 0.2 µM was determined as 74%.

Consider `CCCCN(c1sc2ccccc2c1CN(C)C)S(=O)(=O)c1ccc(C(=O)OC)cc1` [Compound 420, N-(3-Dimethylaminomethyl-benzo[b]thiophen-2-yl)-N-(butyl)-4-carbomethoxy-benzenesulfonamide], for which the inhibition at 0.2 µM worked out at 48%.

In the case of `O=S1(=O)C(N(Cc2ccc(F)c(C(F)(F)F)c2)S(=O)(=O)c2ccccc2)=Cc2ccccc21` [Compound 421, N-(4-Fluoro-3-trifluoromethyl-benzyl)-N-(1,1-dioxo-benzo[b]thiophen-2-yl)-benzenesulfonamide], the IC50 was 64 nM and the inhibition at 0.2 µM stood at 90%.

For `CCCCN(c1sc2ccccc2c1OC)S(=O)(=O)c1ccc(C(=O)OC)cc1` [Compound 422, N-(Butyl)-N-(3-methoxy-benzo[b]thiophen-2-yl)-4-carbomethoxybenzenesulfonamide], the IC50 is 18 nM and the inhibition at 0.2 µM amounted to 97%.

With `CCCCN(c1sc2ccccc2c1OC)S(=O)(=O)c1ccc(C(=O)O)cc1` [Compound 423, N-(Butyl)-N-(3-methoxy-benzo[b]thiophen-2-yl)-4-carboxy-benzenesulfonamide], the IC50 came out at 7 nM and the inhibition at 0.2 µM turned out to be 93%.

For `O=S(=O)(c1ccc(-c2nnn[nH]2)cc1)N(Cc1ccc(F)c(C(F)(F)F)c1)c1cc2ccccc2s1` [Compound 424, N-(Benzo[b]thiophen-2-yl)-N-(4-fluoro-3-trifluoromethyl-benzyl)-4-(1H-tetrazol-5-yl)-benzenesulfonamide], the IC50 was 7 nM and the inhibition at 0.2 µM was determined as 95%.

For the compound `O=S(=O)(c1ccc(-c2nnn[nH]2)cc1)N(CCCC(F)(F)F)c1cc2ccccc2s1` [Compound 425, N-(Benzo[b]thiophen-2-yl)-N-(4,4,4-trifluoro-butyl)-4-(1H-tetrazol-5-yl)-benzenesulfonamide], the IC50 was determined as 79 nM and the inhibition at 0.2 µM came to 86%.

On to `Cc1c(N(CCCC(F)(F)F)S(=O)(=O)c2ccc(C(=O)O)cc2)sc2cc(F)ccc12` [Compound 426, N-(6-Fluoro-3-methyl-benzo[b]thiophen-2-yl)-N-(4,4,4-trifluoro-butyl)-4-carboxy-benzenesulfonamide], for which the IC50 is 30 nM and the inhibition at 0.2 µM is 95%.

For `Cc1c(N(Cc2ccc(F)c(C(F)(F)F)c2)S(=O)(=O)c2ccc(C(=O)O)cc2)sc2cc(F)ccc12` [Compound 427, N-(6-Fluoro-3-methyl-benzo[b]thiophen-2-yl)-N-(4-fluoro-3-trifluoromethyl-benzyl)-4-carboxy-benzenesulfonamide], the IC50 is 5 nM and the inhibition at 0.2 µM came to 95%.

Turning to `CCCCN(c1sc2ccccc2c1Br)S(=O)(=O)c1ccc(-c2nnn[nH]2)cc1` [Compound 428, N-(3-Bromo-benzo[b]thiophen-2-yl)-N-(butyl)-4-(1H-tetrazol-5-yl)-benzenesulfonamide], the IC50 is 10 nM and the inhibition at 0.2 µM was 93%.
